Literature values as cited in patent US20130236595A1, “FOOD PRODUCT PROVIDING SUSTAINED BLOOD LEVELS OF EXOGENOUS SUBSTANCES” (NESTEC S.A., priority 2003, published 2013).
“Also recorded” adds a separate entry of the source.

Columns and labels:
[1] = caffeine in blood plasma

## Cn1c(=O)c2c(ncn2C)n(C)c1=O [caffeine]
After a cup of coffee is consumed
  time of peak in caffeine level in blood: after about an hour; also recorded: after one hour
In adults
  half-life of caffeine: 3 to 7 h
[1]
  threshold value for stimulation: about 2 mg/l
